The source of these data is US10457707B2, “Substituted urea depsipeptide analogs as activators of the CLPP endopeptidase” (priority 2015, dated 2019).

Usually EC50 stands for the concentration giving half of the maximal effect. One may read the solubility as how much of the substance goes into solution per volume. The low end stands for a poorly soluble substance, the high end for a readily soluble substance.

One data set has as its target T1, Sa-ClpP (Staphylococcus aureus, UniProt Q2G036).
T1 construct: made in house; host or cells: E. coli BL21(DE3)
T1 sequence (Q2G036 1-195): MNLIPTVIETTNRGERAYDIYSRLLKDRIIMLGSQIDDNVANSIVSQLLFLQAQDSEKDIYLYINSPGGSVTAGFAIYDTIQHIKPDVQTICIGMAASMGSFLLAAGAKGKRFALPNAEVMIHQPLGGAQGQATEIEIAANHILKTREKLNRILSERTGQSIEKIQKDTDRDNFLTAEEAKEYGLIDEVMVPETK
Briefly: Casein-BODIPY assay, second described ClpP activation method (EnzCheck Protease Assay, 384 well). The format is biochemical, S. aureus. The following applies: values marked †: second described ClpP activation assay. Here is the method: Alternatively, the assay was carried out using EnzCheck Protease Assay (Molecular Probes, Catalog # E6638). The assay was performed in black 384 well, flat bottom, low volume plates (Greiner Bio-One, Monroe, N.C., catalog #784076). 10 μL of Tris*HCl buffer, pH 8.0 with 0.01% Triton X-100 was pipetted into each well using a Well-Mate (Thermo Scientific, Waltham, Mass.). 0.4 μL test compounds or controls (2% DMSO v/v) were added to each well using a Biomek FX liquid handling robot (Beckman Coulter, Indianapolis Ind.). After addition of test compounds and controls, 10 μL of master mix containing 2 μM Sa-ClpP and 2 μM substrate (Bodipy-FL labeled casein) in Tris*HCl buffer, pH 8.0 with 0.01% (v/v) Triton X-100, was pipetted into each well. All assays were performed in triplicate, under linear velocity conditions. Increase in fluorescent signal following activation of Sa-ClpP by test compounds and controls was measured over time period of 30 mins using filters with excitation at 485±15 nm and emission at 520±25 nm on a PHERAstar FS Multilabel reader (BMG, Cary, N.C.). […] Data analysis was done by measuring rate of casein degradation over time (slopes). Computed degradation rates (slopes) were normalized to positive (ADEP4) or negative (DMSO) controls. Using nonlinear regression curve fitting EC50 values and % activation were determined using the equation “log [agonist] vs. Response-variable slope (four parameters)-symmetrical” in the program Prism 6 (GraphPad Software, La Jolla, Calif. USA, www.graphpad.com).

Data set [1] concerns Streptococcus pneumoniae, R6. Briefly: Minimal inhibitory concentration assay. The format is cell-based. The following applies: read-out: Minimal Inhibitory Concentrations S. pneumoniae R6. An outline of the steps: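 Microbroth dilution with two-fold serial compound dilutions in broth, incubated aerobically overnight at 37° C. MIC taken as the lowest concentration preventing bacterial growth.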

The next data set is described as follows: physchem. The note with it: 22 °C, aqueous buffer, kinetic from dmso stock.

SMILES strings stand for the structures. Converted amounts (≈) assume the structure as drawn. *1 amine or outer side, *2 acyl side, *3 side chain or, on linkers, in order; H or OH if unused. Where a SMILES comes first, the peptide text is derived from it. Bridges are numbered along the chain shown (N, C = ends). [ ]: non-standard residue; d: D form. The star is where a group is joined. Phe(3,5-F2) = N[C@@H](Cc1cc(F)cc(F)c1)C(=O)O; NMepT = CN[C@H](C(=O)O)[C@@H](C)OP(=O)(O)O; Pro(4S-Me) = C[C@@H]1CN[C@H](C(=O)O)C1; Pro(4R-Me) = C[C@H]1CN[C@H](C(=O)O)C1; NH(4-Et-phenyl) = CCc1ccc(N*)cc1; NMeT = CN[C@H](C(=O)O)[C@@H](C)O; NH(4-Me-phenyl) = Cc1ccc(N*)cc1; aThr = C[C@H](O)[C@H](N)C(=O)O; CO = O=C([*:1])[*:2]

In the case of `CCc1ccc(NC(=O)N[C@@H](Cc2cc(F)cc(F)c2)C(=O)N[C@@H]2C(=O)N3CCC[C@H]3C(=O)N(C)[C@@H]([C@@H](C)O)C(=O)N[C@@H](C)C(=O)N3C[C@H](C)C[C@H]3C(=O)O[C@H]2C)cc1` [Compound 42, (S)-3-(3,5-difluorophenyl)-2-(3-(4-ethylphenyl)ureido)-N-((2R,6S,9S,11aS,17S,18S,20aS)-9-((R)-1-hydroxyethyl)-2,6,10,18-tetramethyl-5,8,11,16,20-pentaoxohexadecahydro-1H,5H,16H-dipyrrolo[2,1-c:2′,1′-l][1]oxa[4,7,10,13]tetraazacyclohexadecin-17-yl)propanamide] ({NH(4-Et-phenyl)-CO}-[Phe(3,5-F2)][aThr]P[NMeT]A[Pro(4R-Me)]; ester 2-C), on Sa-ClpP, the EC50 is 250 ± 30 nM. Further, in data set [1], the MIC is 0.01 µM (≈ 8.26 ng/mL).

On to `Cc1ccc(NC(=O)N[C@@H](Cc2cc(F)cc(F)c2)C(=O)N[C@@H]2C(=O)N3CCC[C@H]3C(=O)N(C)[C@@H]([C@@H](C)OP(=O)(O)O)C(=O)N[C@@H](C)C(=O)N3C[C@@H](C)C[C@H]3C(=O)O[C@H]2C)cc1` [Compound 188, (R)-1-((2S,6S,9S,11aS,17S,18S,20aS)-17-((S)-3-(3,5-difluorophenyl)-2-(3-(p-tolyl)ureido)propanamido)-2,6,10,18-tetramethyl-5,8,11,16,20-pentaoxohexadecahydro-1H,5H,16H-dipyrrolo[2,1-c:2′,1′-l][1]oxa[4,7,10,13]tetraazacyclohexadecin-9-yl)ethyl dihydrogen phosphate] ({NH(4-Me-phenyl)-CO}-[Phe(3,5-F2)][aThr]P[NMepT]A[Pro(4S-Me)]; ester 2-C), for which the MIC in data set [1] was 13 µM. For the same molecule, the solubility in the data set “physchem” was 107 ± 2.7 µM.
